Experimental data published in patent US8822467B2 (Ligand Pharmaceuticals Inc., priority 2009, dated 2014).
Like-named read-outs stand apart in the source and are kept apart here.

Biological target: T1, human CRTH2 (Homo sapiens, UniProt Q9Y5Y4)
T1 construct: expressed in transfected cells
T1 sequence (Q9Y5Y4 1-395): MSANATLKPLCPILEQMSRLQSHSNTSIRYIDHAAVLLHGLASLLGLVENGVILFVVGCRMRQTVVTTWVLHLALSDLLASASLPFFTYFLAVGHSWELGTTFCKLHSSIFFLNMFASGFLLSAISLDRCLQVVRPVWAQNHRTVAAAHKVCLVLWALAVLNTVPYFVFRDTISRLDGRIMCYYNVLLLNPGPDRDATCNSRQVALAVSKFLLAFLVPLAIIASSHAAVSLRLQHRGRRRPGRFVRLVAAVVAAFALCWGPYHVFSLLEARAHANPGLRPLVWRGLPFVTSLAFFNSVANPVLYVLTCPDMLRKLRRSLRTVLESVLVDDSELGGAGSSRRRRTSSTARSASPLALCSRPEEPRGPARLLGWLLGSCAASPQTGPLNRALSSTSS
Assay: [35S]GTPγS binding assay (SPA) on membranes from CHO-K1 cells stably expressing human CRTH2, stimulated with 60 nM DHK-PGD2
Assay type: biochemical
Settings: read-out: CRTH2 hGTPγS IC50
Experimental: [^35S]GTPγS Binding Assay
SPA [^35S]G-TPγS binding was performed on membranes from CHO-K1 cells stably expressing human CRTH2. To a white, clear-bottomed 384-well plate, 4 μg membrane protein was incubated in the binding buffer (20 mM HEPES, pH 7.4, 10 mM MgCl2, 300 mM NaCl, 0.2% BSA) with 60 nM DHK-PGD2, 500 pM [^35S]GTPγS, 10 μM GDP, and 100 μg wheat germ agglutinin-coupled SPA beads (GE Healthcare) with and without increasing concentrations of compounds. The final assay volume was 40 μL and contained 1% DMSO. Samples were incubated for 2 h at ambient temperature. Plates were centrifuged 5 min at 1500 rpm. Plates were read after an additional 4 h using the Trilux 1450 Microbeta (PerkinElmer) with a 30 sec/well reading time.

[1] = membranes of CHO-K1 cells expressing human CRTH2, 60 nM DHK-PGD2, Table 1

`CN(Cc1ccc(OCC(=O)O)c(-c2cccc(C#N)c2)c1)S(=O)(=O)c1ccc(F)cc1` [Example 5, 2-(2-(3-cyanophenyl)-4-((4-fluoro-N-methylphenylsulfonamido)methyl)phenoxy)acetic acid] was tested, and the IC50 (potency class symbols, Table 2) was < 100 nM.

With `N#Cc1cccc(-c2cc(CNS(=O)(=O)c3ccc(F)cc3)ccc2OCC(=O)O)c1` [Example 9, 2-(2-(3-cyanophenyl)-4-((4-fluorophenylsulfonamido)methyl)phenoxy)acetic acid] the IC50 (potency class symbols, Table 2) was < 100 nM.

`CNS(=O)(=O)c1cccc(-c2cc(CN(C)S(=O)(=O)c3ccc(F)c(Cl)c3)ccc2OCC(=O)O)c1` [Example 16, 2-(2-(3-N-methylsulfamoylphenyl)-4-((3-chloro-4-fluoro-N-methylphenylsulfonamido)methyl)phenoxy)acetic acid] was tested, and the IC50 (potency class symbols, Table 2) was < 100 nM.

`CC(c1ccc(OCC(=O)O)c(-c2cccc(C(F)(F)F)c2)c1)N(C)S(=O)(=O)c1ccc(F)cc1` (centres unmarked) [Example 22, 2-(2-(3-trifluoromethylphenyl)-4-(1-(4-fluoro-N-methylphenylsulfonamido)ethyl)phenoxy)acetic acid] was tested, and the IC50 (potency class symbols, Table 2) was 100 to 1000 nM.

`CN(Cc1ccc(OCC(=O)O)c(-c2ccc(F)c(S(C)(=O)=O)c2)c1)S(=O)(=O)c1ccc(F)cc1` [Example 28, 2-((4-fluoro-3-(methylsulfonyl)phenyl)-4-((4-fluoro-N-methylphenylsulfonamido)methyl)phenoxy)acetic acid] was tested, and the IC50 (potency class symbols, Table 2) was < 100 nM.

`CN(Cc1ccc(OC(C)(C)C(=O)O)c(-c2cccc(C(F)(F)F)c2)c1)S(=O)(=O)c1ccc(F)cc1` [Example 34, 2-(2-(3-trifluoromethylphenyl)-4-((4-fluoro-N-methylphenylsulfonamido)methyl)phenoxy)-2-methylpropanoic acid] gave an IC50 (potency class symbols, Table 2) of 1000 to 10000 nM.

`C[C@@H](Oc1ccc(CN(C)S(=O)(=O)c2ccc(F)cc2)cc1-c1cccc(C(F)(F)F)c1)C(=O)O` [Example 35, (R)-2-(2-(3-trifluoromethylphenyl)-4-((4-fluoro-N-methylphenylsulfonamido)methyl)phenoxy)propanoic acid] showed an IC50 (potency class symbols, Table 2) of 1000 to 10000 nM.

`C[C@H](Oc1ccc(CN(C)S(=O)(=O)c2ccc(F)cc2)cc1-c1cccc(C(F)(F)F)c1)C(=O)O` [Example 36, (S)-2-(2-(3-trifluoromethylphenyl)-4-((4-fluoro-N-methylphenylsulfonamido)methyl)phenoxy)propanoic acid] showed an IC50 (potency class symbols, Table 2) of 100 to 1000 nM.

`COc1cc(F)cc(-c2cc(CN(C)S(=O)(=O)c3ccc(F)c(Cl)c3)ccc2OCC(=O)O)c1` [Example 37, 2-(3-fluoro-5-methoxyphenyl)-4-((3-chloro-4-fluoro-N-methylphenylsulfonamido)methyl)phenoxyacetic acid] was tested, and the IC50 [1] was 0.6 nM and the IC50 (potency class symbols, Table 2) was < 100 nM.

For `CN(Cc1ccc(OCC(=O)O)c(-c2cc(F)cc(C#N)c2)c1)S(=O)(=O)c1ccc(Cl)c(Cl)c1` [Example 38, 2-(3-cyano-5-fluorophenyl)-4-((3,4-dichloro-N-methylphenylsulfonamido)methyl)phenoxyacetic acid], the IC50 [1] was 0.7 nM and the IC50 (potency class symbols, Table 2) was < 100 nM.

With `CN(Cc1ccc(OCC(=O)O)c(-c2cccc(S(C)(=O)=O)c2)c1)S(=O)(=O)c1ccc(F)c(Cl)c1` [Example 39, 2-(3-methylsulfonylphenyl)-4-((3-chloro-4-fluoro-N-methylphenylsulfonamido)methyl)phenoxyacetic acid] the IC50 (potency class symbols, Table 2) was < 100 nM.

`COc1ccc(S(=O)(=O)N(C)Cc2ccc(OCC(=O)O)c(-c3cc(F)cc(C#N)c3)c2)cc1F` [Example 41, 2-(3-cyano-5-fluorophenyl)-4-((3-fluoro-4-methoxy-N-methylphenylsulfonamido)methyl)phenoxyacetic acid] was tested, and the IC50 (potency class symbols, Table 2) was < 100 nM.

For `CN(Cc1cc(-c2cccc(C#N)c2)c(OCC(=O)O)cc1Cl)S(=O)(=O)c1ccc(F)c(Cl)c1` [Example 42, 2-(3-cyanophenyl)-4-((3-chloro-4-fluoro-N-methylphenylsulfonamido)methyl)-5-chlorophenoxyacetic acid], the IC50 [1] was 1.5 nM and the IC50 (potency class symbols, Table 2) was < 100 nM.

In the case of `CN(Cc1cc(-c2cccc(C#N)c2)c(OCC(=O)O)cc1F)S(=O)(=O)c1ccc(F)c(Cl)c1` [Example 43, 2-(3-cyanophenyl)-4-((3-chloro-4-fluoro-N-methylphenylsulfonamido)methyl)-5-fluorophenoxyacetic acid], the IC50 (potency class symbols, Table 2) is reported as < 100 nM.

In the case of `CN(Cc1ccc(OCC(=O)O)c(-c2cc(F)cc(C#N)c2)c1)S(=O)(=O)c1ccc(F)c(F)c1` [Example 44, 2-(3-cyano-5-fluorophenyl)-4-((3,4-difluoro-N-methylphenylsulfonamido)methyl)phenoxyacetic acid], the IC50 [1] is reported as 1.8 nM and the IC50 (potency class symbols, Table 2) is reported as < 100 nM.

`CN(Cc1ccc(OCC(=O)O)c(-c2cc(F)cc(C#N)c2)c1)S(=O)(=O)c1cccc(Cl)c1` [Example 45, 2-(3-cyano-5-fluorophenyl)-4-((3-chloro-N-methylphenylsulfonamido)methyl)phenoxyacetic acid] was tested, and the IC50 [1] was 2 nM and the IC50 (potency class symbols, Table 2) was < 100 nM.

`COc1cc(F)cc(-c2cc(CN(C)S(=O)(=O)c3ccc(F)c(F)c3)ccc2OCC(=O)O)c1` [Example 46, 2-(3-fluoro-5-methoxyphenyl)-4-((3,4-difluoro-N-methylphenylsulfonamido)methyl)phenoxyacetic acid] was tested, and the IC50 [1] was 2.1 nM and the IC50 (potency class symbols, Table 2) was < 100 nM.

For `CN(Cc1ccc(OCC(=O)O)c(-c2cccc(S(C)(=O)=O)c2)c1)S(=O)(=O)c1ccc(F)c(F)c1` [Example 47, 2-(3-methylsulfonylphenyl)-4-((3,4-difluoro-N-methylphenylsulfonamido)methyl)phenoxyacetic acid], the IC50 (potency class symbols, Table 2) was < 100 nM.

`COc1cc(F)cc(-c2cc(CN(C)S(=O)(=O)c3ccc(OC)c(F)c3)ccc2OCC(=O)O)c1` [Example 48, 2-(3-fluoro-5-methoxyphenyl)-4-((3-fluoro-4-methoxy-N-methylphenylsulfonamido)methyl)phenoxyacetic acid] was tested, and the IC50 [1] was 2.9 nM and the IC50 (potency class symbols, Table 2) was < 100 nM.

For `CN(Cc1cc(-c2cccc(C#N)c2)c(OCC(=O)O)cc1Cl)S(=O)(=O)c1ccc(F)cc1` [Example 49, 2-(3-cyanophenyl)-4-((4-fluoro-N-methylphenylsulfonamido)methyl)-5-chlorophenoxyacetic acid], the IC50 (potency class symbols, Table 2) was < 100 nM.

With `CNS(=O)(=O)c1cccc(-c2cc(CN(C)S(=O)(=O)c3ccc(F)c(F)c3)ccc2OCC(=O)O)c1` [Example 50, 2-(3-N-methylsulfamoylphenyl)-4-((3,4-difluoro-N-methylphenylsulfonamido)methyl)phenoxyacetic acid] the IC50 (potency class symbols, Table 2) was < 100 nM.

For `CN(Cc1ccc(OCC(=O)O)c(-c2cc(F)cc(F)c2)c1)S(=O)(=O)c1ccc(Cl)c(Cl)c1` [Example 51, 2-(3,5-difluorophenyl)-4-((3,4-dichloro-N-methylphenylsulfonamido)methyl)phenoxyacetic acid], the IC50 [1] was 3.4 nM and the IC50 (potency class symbols, Table 2) was < 100 nM.

With `CN(Cc1ccc(OCC(=O)O)c(-c2cccc(S(N)(=O)=O)c2)c1)S(=O)(=O)c1ccc(F)cc1` [Example 52, 2-(3-aminosulfonylphenyl)-4-((4-fluoro-N-methylphenylsulfonamido)methyl)phenoxyacetic acid] the IC50 (potency class symbols, Table 2) was < 100 nM.

For `CN(Cc1cc(-c2cccc(C#N)c2)c(OCC(=O)O)cc1Cl)S(=O)(=O)c1cccc(F)c1` [Example 53, 2-(3-cyanophenyl)-4-((3-fluoro-N-methylphenylsulfonamido)methyl)-5-chlorophenoxyacetic acid], the IC50 (potency class symbols, Table 2) was < 100 nM.

For `CNS(=O)(=O)c1cccc(-c2cc(CN(C)S(=O)(=O)c3ccc(F)cc3)ccc2OCC(=O)O)c1` [Example 54, 2-(3-N-methylsulfamoylphenyl)-4-((4-fluoro-N-methylphenylsulfonamido)methyl)phenoxyacetic acid], the IC50 (potency class symbols, Table 2) was < 100 nM.

For `CN(Cc1ccc(OCC(=O)O)c(-c2cc(F)cc(C#N)c2)c1)S(=O)(=O)c1ccc(F)c(Cl)c1` [Example 55, 2-(3-cyano-5-fluorophenyl)-4-((3-chloro-4-fluoro-N-methylphenylsulfonamido)methyl)phenoxyacetic acid], the IC50 (potency class symbols, Table 2) was < 100 nM.

With `CN(Cc1ccc(OCC(=O)O)c(-c2cccc(C#N)c2)c1)S(=O)(=O)c1ccc(Cl)c(Cl)c1` [Example 56, 2-(3-cyanophenyl)-4-((3,4-dichloro-N-methylphenylsulfonamido)methyl)phenoxyacetic acid] the IC50 (potency class symbols, Table 2) was < 100 nM.

`CN(Cc1ccc(OCC(=O)O)c(-c2cccc(S(C)(=O)=O)c2)c1)S(=O)(=O)c1cccc(F)c1` [Example 57, 2-(3-methylsulfonylphenyl)-4-((3-fluoro-N-methylphenylsulfonamido)methyl)phenoxyacetic acid] was tested, and the IC50 (potency class symbols, Table 2) was < 100 nM.

With `CCS(=O)(=O)c1cccc(-c2cc(CN(C)S(=O)(=O)c3ccc(F)c(F)c3)ccc2OCC(=O)O)c1` [Example 58, 2-(3-ethylsulfonylphenyl)-4-((3,4-difluoro-N-methylphenylsulfonamido)methyl)phenoxyacetic acid] the IC50 (potency class symbols, Table 2) was < 100 nM.

For `Cc1ccc(S(=O)(=O)N(C)Cc2ccc(OCC(=O)O)c(-c3cccc(S(C)(=O)=O)c3)c2)cc1` [Example 59, 2-(3-methylsulfonylphenyl)-4-((4-methyl-N-methylphenylsulfonamido)methyl)phenoxyacetic acid], the IC50 (potency class symbols, Table 2) was < 100 nM.
